Laboratory results reported in patent US12110293B2, “Substituted triazolo quinoxaline derivatives” (GRÜNENTHAL GMBH, priority 2018, dated 2024).

Target: T1, glucocorticoid receptor (Homo sapiens, UniProt P04150)
T1 construct: expressed in transfected cells
T1 sequence (P04150 524-758 limits assumed): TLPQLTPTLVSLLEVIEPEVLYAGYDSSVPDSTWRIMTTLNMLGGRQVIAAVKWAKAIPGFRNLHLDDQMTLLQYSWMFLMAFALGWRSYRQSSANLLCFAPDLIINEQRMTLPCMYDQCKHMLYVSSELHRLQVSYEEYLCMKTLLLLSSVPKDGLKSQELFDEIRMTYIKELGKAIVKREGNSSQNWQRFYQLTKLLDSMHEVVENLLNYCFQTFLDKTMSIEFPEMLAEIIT
Test: Agonistic mode of action on the glucocorticoid receptor (CHO-Gal4/GR luciferase reporter cell line)
Type: cell-based
Settings: range class observed in the agonistic assay or the antagonistic assay (CHO-Gal4/GR reporter cells); table does not say which mode applies per example
Procedure, shortened: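 Agonism measured as dose-dependent luciferase luminescence (FLIPR Tetra) from a GAL4-UAS reporter driven by GAL4 DBD fused to GR ligand-binding domain in stable CHO cells. Eight half-log doses, 10 μM to 0.003 μM final in 0.5% DMSO, quadruplicate, on cells seeded 24 h earlier at 5000/well; EC50 derived.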

SMILES	IC50 or EC50 (agonist or antagonist mode not specified) [nM]
CCc1c(-c2cc(F)cc3c2ccn3CCO)c(F)cc2c1-n1c(C)nnc1C(C)(C)N2 [Example 44, 2-(4-(9-ethyl-7-fluoro-1,4,4-trimethyl-4,5-dihydro-[1,2,4]triazolo[4,3-a]quinoxalin-8-yl)-6-fluoro-1H-indol-1-yl)ethanol]	100 to 1000
Cc1nnc2n1-c1c(cc(F)c(-c3cc(F)cc4c3cnn4CCO)c1C(F)(F)F)NC2(C)C [Example 449, 2-[6-Fluoro-4-[7-fluoro-1,4,4-trimethyl-9-(trifluoromethyl)-5H-[1,2,4]triazolo[4,3-a]quinoxalin-8-yl]-1H-indazol-1-yl]-ethanol]	< 100
COC(=O)CCn1ccc2c(-c3c(F)cc4c(c3F)-n3c(C)nnc3C(C)(C)N4)cccc21 [Example 219, 3-[4-(7,9-Difluoro-1,4,4-trimethyl-5H-[1,2,4]triazolo[4,3-a]quinoxalin-8-yl)-1H-indol-1-yl]-propionic acid methyl ester]	1000 to 15000
Cc1nnc2n1-c1c(cc(F)c(-c3cccc4c3ccn4S(C)(=O)=O)c1F)NC2(C)C [Example 22, 7,9-difluoro-1,4,4-trimethyl-8-(1-(methylsulfonyl)-1H-indol-4-yl)-4,5-dihydro-[1,2,4]triazolo[4,3-a]quinoxaline]	100 to 1000
Cc1c(-c2cc(F)cc3c(C)c[nH]c23)c(OC(F)F)cc2c1-n1c(C)nnc1C(C)(C)N2 [Example 365, 7-(Difluoro-methoxy)-8-(5-fluoro-3-methyl-1H-indol-7-yl)-1,4,4,9-tetramethyl-5H-[1,2,4]triazolo[4,3-a]quinoxaline]	1000 to 15000
Cc1nnc2n1-c1c(cc(F)c(-c3cccc4c3ccn4S(=O)(=O)C3CC3)c1C(F)F)NC2(C)C [Example 401, 8-[1-(Cyclopropylsulfonyl)-1H-indol-4-yl]-9-(difluoro-methyl)-7-fluoro-1,4,4-trimethyl-5H-[1,2,4]triazolo [4,3-a]quinoxaline]	100 to 1000
CC#Cc1c[nH]c2c(-c3c(F)cc4c(c3C)-n3c(C(C)O)nnc3C(C)(C)N4)cc(F)cc12 (centres unmarked) [Example 78]	1000 to 15000
Cc1nnc2n1-c1c(cc(OC(F)F)c(-c3cc(F)cc4c3ccn4S(C)(=O)=O)c1F)NC2(C)C [Example 268, 7-(Difluoro-methoxy)-9-fluoro-8-(6-fluoro-1-methylsulfonyl-1H-indol-4-yl)-1,4,4-trimethyl-5H-[1,2,4]triazolo[4,3-a]quinoxaline]	1000 to 15000
Cc1nnc2n1-c1c(cc(OC(F)F)c(-c3cccc4[nH]ccc34)c1F)NC2(C)C [Example 297, 7-(Difluoro-methoxy)-9-fluoro-8-(1H-indol-4-yl)-1,4,4-trimethyl-5H-[1,2,4]triazolo[4,3-a]quinoxaline]	1000 to 15000
COc1c(-c2cccc3[nH]ccc23)c(F)cc2c1-n1c(C)nnc1C(C)(C)N2 [Example 286, 7-Fluoro-8-(1H-indol-4-yl)-9-methoxy-1,4,4-trimethyl-5H-[1,2,4]triazolo[4,3-a]quinoxaline]	100 to 1000
Cc1c[nH]c2c(-c3c(F)cc4c(c3F)-n3c(Cc5cccnc5)nnc3C(C)(C)N4)cc(F)cc12 [Example 73, 7,9-Difluoro-8-(5-fluoro-3-methyl-1H-indol-7-yl)-4,4-dimethyl-1-(pyridin-3-yl-methyl)-5H-[1,2,4]triazolo[4,3-a]quinoxaline]	100 to 1000
COc1c(-c2cc(F)cc3c2cnn3S(C)(=O)=O)c(F)cc2c1-n1c(C)nnc1C(C)(C)N2 [Example 339, 7-Fluoro-8-(6-fluoro-1-methylsulfonyl-1H-indazol-4-yl)-9-methoxy-1,4,4-trimethyl-5H-[1,2,4]triazolo[4,3-a]quinoxaline]	100 to 1000
CCn1ncc2c(-c3c(F)cc4c(c3F)-n3c(C)nnc3C(C)(C)N4)cccc21 [Example 236, 8-(1-Ethyl-1H-indazol-4-yl)-7,9-difluoro-1,4,4-trimethyl-5H-[1,2,4]triazolo[4,3-a]quinoxaline]	100 to 1000
Cc1c(-c2cccc3c(C4CCOC4)c[nH]c23)c(F)cc2c1-n1c(C)nnc1C(C)(C)N2 (centres unmarked) [Example 42, 7-fluoro-1,4,4,9-tetramethyl-8-(3-(tetrahydrofuran-3-yl)-1H-indol-7-yl)-4,5-dihydro-[1,2,4]triazolo[4,3-a]quinoxaline]	< 100
Cc1c[nH]c2c(-c3c(C(F)F)cc4c(c3F)-n3c(C)nnc3C(C)(C)N4)cccc12 [Example 306, 7-(Difluoro-methyl)-9-fluoro-1,4,4-trimethyl-8-(3-methyl-1H-indol-7-yl)-5H-[1,2,4]triazolo[4,3-a]quinoxaline]	100 to 1000
Cc1c[nH]c2c(-c3c(Cl)cc4c(c3F)-n3c(C)nnc3C(C)(C)N4)cc(F)cc12 [Example 290, 7-Chloro-9-fluoro-8-(5-fluoro-3-methyl-1H-indol-7-yl)-1,4,4-trimethyl-5H-[1,2,4]triazolo[4,3-a]quinoxaline]	100 to 1000
Cc1nnc2n1-c1c(cc(F)c(-c3cccc4[nH]c(C(F)(F)F)cc34)c1F)NC2(C)C [Example 225, 7,9-Difluoro-1,4,4-trimethyl-8-[2-(trifluoromethyl)-1H-indol-4-yl]-5H-[1,2,4]triazolo[4,3-a]quinoxaline]	< 100
CCc1c(-c2cc(F)cc3c2cnn3S(C)(=O)=O)c(F)cc2c1-n1c(C)nnc1C(C)(C)N2 [Example 52, 9-Ethyl-7-fluoro-8-(6-fluoro-1-methylsulfonyl-1H-indazol-4-yl)-1,4,4-trimethyl-5H-[1,2,4]triazolo[4,3-a]quinoxaline]	< 100
COCCn1ccc2c(-c3c(F)cc4c(c3F)-n3c(C)nnc3C(C)(C)N4)cccc21 [Example 204, 7,9-Difluoro-8-[1-(2-methoxy-ethyl)-1H-indol-4-yl]-1,4,4-trimethyl-5H-[1,2,4]triazolo[4,3-a]quinoxaline]	100 to 1000

Other lines, results leading:

IC50 or EC50 (agonist or antagonist mode not specified) [nM]	SMILES
100 to 1000	Cc1nnc2n1-c1c(ccc(-c3cc(F)cc4c3ccn4S(C)(=O)=O)c1C(F)F)NC2(C)C [Example 526, 9-(Difluoro-methyl)-8-(6-fluoro-1-methylsulfonyl-1H-indol-4-yl)-1,4,4-trimethyl-5H-[1,2,4] triazolo[4,3-a]quinoxaline]
100 to 1000	Cc1nnc2n1-c1c(cc(F)c(-c3cc(C(F)(F)F)cc4[nH]ccc34)c1C(F)(F)F)NC2(C)C [Example 473, 7-Fluoro-1,4,4-trimethyl-9-(trifluoromethyl)-8-[6-(trifluoromethyl)-1H-indol-4-yl]-5H-[1,2,4]triazolo[4,3-a] quinoxaline]
100 to 1000	COc1cc2c(c(C(F)(F)F)c1-c1cccc3c1ccn3CC(F)F)-n1c(C)nnc1C(C)(C)N2 [Example 500, 8-[1-(2,2-Difluoro-ethyl)-1H-indol-4-yl]-7-methoxy-1,4,4-trimethyl-9-(trifluoromethyl)-5H-[1,2,4]triazolo[4,3-a]quinoxaline]
100 to 1000	Cc1cc(-c2c(F)cc3c(c2C(F)F)-n2c(C)nnc2C(C)(C)N3)c2ccn(S(C)(=O)=O)c2c1 [Example 478, 9-(Difluoro-methyl)-7-fluoro-1,4,4-trimethyl-8-(6-methyl-1-methylsulfonyl-1H-indol-4-yl)-5H-[1,2,4]triazolo[4,3-a]quinoxaline]
< 100	Cc1c(-c2cccc3c2ccn3C2CC2)c(Cl)cc2c1-n1c(C)nnc1C(C)(C)N2 [Example 533, 7-Chloro-8-(1-cyclopropyl-1H-indol-4-yl)-1,4,4,9-tetramethyl-5H-[1,2,4]triazolo[4,3-a] quinoxaline]
< 100	COc1c(-c2cc(F)cc3[nH]ccc23)c(F)cc2c1-n1c(C)nnc1C(C)(C)N2 [Example 468, 7-Fluoro-8-(6-fluoro-1H-indol-4-yl)-9-methoxy-1,4,4-trimethyl-5H-[1,2,4]triazolo[4,3-a]quinoxaline]
100 to 1000	Cc1nnc2n1-c1c(ccc(-c3cccc4c3ccn4S(C)(=O)=O)c1C(F)(F)F)NC2(C)C [Example 498, 1,4,4-Trimethyl-8-(1-methylsulfonyl-1H-indol-4-yl)-9-(trifluoromethyl)-5H-[1,2,4]triazolo[4,3-a]quinoxaline]
< 100	CCS(=O)(=O)n1ccc2c(-c3c(F)cc4c(c3C(F)(F)F)-n3c(C)nnc3C(C)(C)N4)cccc21 [Example 455, 8-[1-(Ethylsulfonyl)-1H-indol-4-yl]-7-fluoro-1,4,4-trimethyl-9-(trifluoromethyl)-5H-[1,2,4]triazolo[4,3-a]quinoxaline]
100 to 1000	Cc1nnc2n1-c1c(cc(Cl)c(-c3cc(F)cc4c3cnn4CC(F)F)c1F)NC2(C)C [Example 508, 7-Chloro-8-[1-(2,2-difluoro-ethyl)-6-fluoro-1H-indazol-4-yl]-9-fluoro-1,4,4-trimethyl-5H-[1,2,4] triazolo[4,3-a]quinoxaline]
< 100	Cc1c(-c2cc(F)cc3c2ccn3C)c(Cl)cc2c1-n1c(C)nnc1C(C)(C)N2 [Example 519, 7-Chloro-8-(6-fluoro-1-methyl-1H-indol-4-yl)-1,4,4,9-tetramethyl-5H-[1,2,4]triazolo[4,3-a]quinoxaline]
